Data reported in the supplement of paper PMC10307832.

Tests used:
Assay in all cases: relative viability (nuclei count vs DMSO), 5 days (fraction); higher = more cells survive
Venetoclax + Foretinib = compound: CC1(C)CCC(CN2CCN(c3ccc(C(=O)NS(=O)(=O)c4ccc(NCC5CCOCC5)c([N+](=O)[O-])c4)c(Oc4cnc5[nH]ccc5c4)c3)CC2)=C(c2ccc(Cl)cc2)C1 [Venetoclax] + COc1cc2c(Oc3ccc(NC(=O)C4(C(=O)Nc5ccc(F)cc5)CC4)cc3F)ccnc2cc1OCCCN1CCOCC1 [Foretinib] (partner 0.25 µM)
In short: (§1)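 Cells from lung cancer lines were seeded into 1536-well plates and, one day later, dosed by pin tool. Treatments were either a single drug or a fixed dose of an anchor drug with five library-drug doses (not always all listed) in √10 steps. After 5 days, nuclei were stained in a one-step fixation (final 0.05% Triton X-100, 1% formaldehyde, 1 ug/ml Hoechst) and counted on 4× images, and relative viability is the treated-to-vehicle nuclei ratio, as the median of duplicate plates.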

Venetoclax + Vorinostat = compound: CC1(C)CCC(CN2CCN(c3ccc(C(=O)NS(=O)(=O)c4ccc(NCC5CCOCC5)c([N+](=O)[O-])c4)c(Oc4cnc5[nH]ccc5c4)c3)CC2)=C(c2ccc(Cl)cc2)C1 [Venetoclax] + O=C(CCCCCCC(=O)Nc1ccccc1)NO [Vorinostat] (partner 1 µM)
In short: as §1

Selumetinib + Trametinib = compound: Cn1cnc2c(F)c(Nc3ccc(Br)cc3Cl)c(C(=O)NOCCO)cc21 [Selumetinib] + CC(=O)Nc1cccc(-n2c(=O)n(C3CC3)c(=O)c3c(Nc4ccc(I)cc4F)n(C)c(=O)c(C)c32)c1 [Trametinib] (partner 0.02 µM)
In short: as §1

Selumetinib + Navitoclax = compound: Cn1cnc2c(F)c(Nc3ccc(Br)cc3Cl)c(C(=O)NOCCO)cc21 [Selumetinib] + CC1(C)CCC(c2ccc(Cl)cc2)=C(CN2CCN(c3ccc(C(=O)NS(=O)(=O)c4ccc(N[C@H](CCN5CCOCC5)CSc5ccccc5)c(S(=O)(=O)C(F)(F)F)c4)cc3)CC2)C1 [Navitoclax] (partner 0.5 µM)
In short: as §1

Cell Line	relative viability (Venetoclax + Foretinib; first compound 0.01 µM)	relative viability (Venetoclax + Foretinib; first compound 0.03162 µM)	relative viability (Venetoclax + Foretinib; first compound 0.1 µM)	relative viability (Venetoclax + Foretinib; first compound 0.3162 µM)	relative viability (Venetoclax + Foretinib; first compound 1 µM)	relative viability (Venetoclax + Vorinostat; first compound 0.01 µM)	relative viability (Venetoclax + Vorinostat; first compound 0.03162 µM)	relative viability (Venetoclax + Vorinostat; first compound 0.1 µM)	relative viability (Venetoclax + Vorinostat; first compound 0.3162 µM)	relative viability (Venetoclax + Vorinostat; first compound 1 µM)	relative viability (Selumetinib + Trametinib; first compound 0.02 µM)	relative viability (Selumetinib + Trametinib; first compound 0.06325 µM)	relative viability (Selumetinib + Trametinib; first compound 0.2 µM)	relative viability (Selumetinib + Trametinib; first compound 0.6325 µM)	relative viability (Selumetinib + Navitoclax; first compound 0.02 µM)	relative viability (Selumetinib + Navitoclax; first compound 0.06325 µM)	relative viability (Selumetinib + Navitoclax; first compound 0.2 µM)	relative viability (Selumetinib + Navitoclax; first compound 0.6325 µM)
NCI-H2085	1.01	1.03	0.905	0.919	0.884	0.713	0.807	0.795	0.817	0.765	0.545	0.62	0.398	0.513	1.09	1.07	0.913	0.795
NCI-H2087	0.911	1.18	1.13	0.955	0.893	0.606	0.824	0.881	0.799	0.953	0.19	0.171	0.231	0.204	0.838	0.585	0.457	0.431
NCI-H2126	1.17	1.21	0.784	1.09	1.06	0.848	0.798	0.687	0.774	0.699	0.569	0.574	0.6	0.622	0.789	0.764	0.75	0.59
NCI-H2170	0.971	1.01	0.939	0.995	1	0.685	0.763	0.682	0.804	0.742	0.934	0.957	0.853	0.921	0.581	0.561	0.514	0.464
NCI-H2228	0.788	0.906	0.851	1	0.776	0.915	0.623	0.799	0.461	0.436	0.513	0.328	0.554	0.393	0.928	0.678	0.789	0.729
NCI-H2347	1.05	1.39	0.85	0.883	0.854	0.574	0.753	0.461	0.593	0.591	0.264	0.294	0.287	0.278	0.752	0.403	0.271	0.228
NCI-H2405	1.03	1.08	1.01	0.999	1.04	0.944	1.27	1.03	1.07	0.889	0.643	0.638	0.669	0.615	0.771	0.636	0.525	0.37
NCI-H3122	0.954	0.996	0.924	0.942	0.96	1.11	0.881	0.802	0.916	0.885	0.202	0.212	0.199	0.266	0.937	0.852	0.908	0.808
PC-3 [JPC-3]	0.939	1.07	1.14	0.987	0.994	0.879	1.12	0.929	0.915	0.675	0.65	0.641	0.685	0.656	0.824	0.744	0.721	0.651
PC-14	0.945	0.968	0.939	0.966	0.822	0.642	0.788	0.822	0.692	0.641	0.847	0.74	0.732	0.604	1.02	1.03	0.957	0.949
RERF-LC-KJ	0.793	0.94	0.871	0.927	0.784	0.587	0.701	0.682	0.686	0.718	0.911	0.858	0.887	0.981	0.726	0.819	0.939	0.758
SK-LU-1	0.776	0.853	0.767	0.816	0.775	0.771	0.803	0.755	0.745	0.719	0.522	0.442	0.424	0.412	0.795	0.791	1.24	0.268
SK-MES-1	0.895	0.988	0.951	0.991	0.899	1.01	1.1	1.06	1.08	0.966	0.561	0.579	0.476	0.461	1.41	1.32	1.26	1.06
SW 1573	0.943	0.974	0.811	0.781	0.828	0.712	0.656	0.643	0.692	0.572	0.599	0.56	0.522	0.545	0.965	0.853	0.716	0.729
